Reference: publication PMC3740683, “ML212: A small-molecule probe for investigating fluconazole resistance mechanisms in Candida albicans” (Beilstein Journal of Organic Chemistry, 2013)

Experiments:
[1] = test system: calcineurin-dependent signaling pathway; assay: Yeast-reporter assay, calcineurin-dependent signaling pathway; assay type: cell-based; details: Saccharomyces cerevisiae
[2] = test system: C. albicans CaCi-2; assay: Primary screen and dose-response retest: CaCi-2 with 8 µg/mL fluconazole (Alamar Blue growth); assay type: cell-based, Candida albicans; details: Candida albicans, CACI2; 37 °C, 48 hours, with test compound and 8 µg/mL (26 µM) fluconazole; average of at least three independent experiments in duplicate; inactive = negligible activity at concentrations below 26 µM
Method: All of the compounds prepared above were evaluated for their ability to chemosensitize the C. albicans test strains CaCi-2 and CaCi-8 towards fluconazole. […] The DMSO/fluconazole combination served as an internal control.
Protocols for cellular assays
Primary screen and dose-response retest: CaCi-2 with 8 µg/mL fluconazole […]
Clear, flat-bottom, black, 384-well plates (Corning Catalog no. 3712BC; Lot no. […]
DMSO; Fluconazole (Sequoia Research Products Ltd) 2 mg/mL stock solution in PBS; […]
(AG Scientific Catalog no. DAL 1100; Lot no.151016SA); PBS without calcium and magnesium (Cellgro Catalog no. 21-040-CV)
Synthetic defined growth medium
RPMI 1640 medium, (powder without sodium bicarbonate; Invitrogen Catalog no. […]
no. 028KO760); Glucose 40% (w/v) in water (Sigma Catalog no. G-5400); MOPS buffer […]
1) Prepare 1× RPMI medium by dissolving 10.4 grams powdered medium in 800 […]
2) Add 34.52 g MOPS. While stirring, adjust pH to 7.0 with 10 N NaOH.
3) Add 10 mL uridine solution, 50 mL glucose solution, adjust final volume to 1000 […]
Test Strain: C. albicans CaCi-2
1) Inoculate 500 µL of strain from cryopreserved stock into a 250 mL shaker flask containing 30 mL growth medium. Shake at 30 °C overnight.
2) Read OD 600 of 1 mL fungal culture in a cuvette using a standard optical density reader (Eppendorf BioPhotometer Plus), with growth medium as a background […]
3) Dilute to desired volume of fungal inoculums according to the following formula:
(1/OD measured) × (desired final volume of inoculum) × 0.3 = volume of fungal culture (µL) to add to desired volume of growth medium. When added to media in wells, this yields a calculated starting OD of the fungal inoculum of 0.00015.
1) Add fluconazole stock solution to fungal inoculum to achieve a final concentration […]
2) Add Pen/Strep at 0.1 mL per 10 mL media (1% v/v).
3) Use a Thermo Combi nL to dispense 20 µL/well of assay media into all wells.
4) Pin 25 nL test compound from compound plates into assay plates using CyBi- […]
5) Dispense 20 µL/well of culture into the assay media in all wells.
6) Incubate plates in a humidified (90% humidity) Liconic incubator at 37 °C without […]
7) Dilute Alamar Blue Reagent 1:40 in Ca/Mg-free PBS.
8) To all plates, add 5 µL/well of the diluted Alamar to a final dilution factor of 1:200.
9) Incubate the plates for an additional 2 hours.
10) Read the relative fluorescence intensity (RFU) of wells on a standard plate reader as a measure of relative fungal growth. EnVision (Perkin Elmer) plate reader setup: Ex 544 nm, Em 590 nm, bandwidth 12 nm, top read. […]

`COC(=O)Cn1nc(-c2cccc(OC)c2)c2ccccc21` [Compound 36] was tested, and the IC50 [1] was over 26000 nM and the IC50 [2] was 700 ± 300 nM.
